Data: ChEMBL document CHEMBL1201862, “PubChem BioAssay data set” (2004)
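Protocol summary: plate cells (96-well), add compound at 5 concentrations, incubate 48 h, interpolate endpoints linearly. The concentration for 50% growth inhibition is given as GI50.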 Calls of active or inactive are those of the source. No stated cut-off is given here; in the data, active = GI50 up to about 1.1 µM and inactive = higher.

Assays:
Assay in all cases: DTP human tumour cell line panel, 48 h
[1] = test system: 786-0
[2] = test system: A498
[3] = test system: A549
[4] = test system: ACHN
[5] = test system: BT-549
[6] = test system: CAKI-1
[7] = test system: COLO 205
[8] = test system: DU-145
[9] = test system: EKVX
[10] = test system: HCC 2998
[11] = test system: HCT-116
[12] = test system: HCT-15
[13] = test system: HL-60
[14] = test system: HOP-62
[15] = test system: HOP-92
[16] = test system: HT-29
[17] = test system: Hs-578T
[18] = test system: IGROV-1
[19] = test system: KM12
[20] = test system: LOX IMVI
[21] = test system: M14
[22] = test system: MCF7
[23] = test system: MDA-MB-231
[24] = test system: MDA-MB-435
[25] = test system: MDA-N
[26] = test system: MOLT-4
[27] = test system: NCI-H226
[28] = test system: NCI-H23
[29] = test system: NCI-H460
[30] = test system: NCI-H522
[31] = test system: NCI/ADR-RES
[32] = test system: OVCAR-3
[33] = test system: OVCAR-4
[34] = test system: OVCAR-5
[35] = test system: OVCAR-8
[36] = test system: PC-3
[37] = test system: RPMI-8226
[38] = test system: RXF 393
[39] = test system: SF-268
[40] = test system: SF-295
[41] = test system: SF-539
[42] = test system: SK-MEL-28
[43] = test system: SK-MEL-2
[44] = test system: SK-MEL-5
[45] = test system: SK-OV-3
[46] = test system: SN12C
[47] = test system: SNB-19
[48] = test system: SNB-75
[49] = test system: SR
[50] = test system: SW-620
[51] = test system: T47D
[52] = test system: TK-10
[53] = test system: U-251
[54] = test system: UACC-257
[55] = test system: UACC-62
[56] = test system: UO-31
[57] = test system: CCRF-CEM
[58] = test system: K562
[59] = test system: Malme-3M

## O=C(/C=C/c1ccccc1)Oc1cccc(Br)c1
[1]
  GI50: > 100 µM (inactive)
[2]
  GI50: 61.8 µM (inactive)
[3]
  GI50: 69.8 µM (inactive)
[4]
  GI50: > 100 µM (inactive)
[5]
  GI50: > 100 µM (inactive)
[6]
  GI50: 48.6 µM (inactive)
[7]
  GI50: 64.1 µM (inactive)
[8]
  GI50: 89.9 µM (inactive)
[9]
  GI50: 48.3 µM (inactive)
[10]
  GI50: 35.7 µM (inactive)
[11]
  GI50: 25.6 µM (inactive)
[12]
  GI50: 18.2 µM
[13]
  GI50: 18.1 µM (inactive)
[14]
  GI50: > 100 µM (inactive)
[15]
  GI50: 91 µM (inactive)
[16]
  GI50: 30.5 µM (inactive)
[17]
  GI50: 16.6 µM (inactive)
[18]
  GI50: 17.7 µM (inactive)
[19]
  GI50: 31.8 µM (inactive)
[20]
  GI50: 29.7 µM (inactive)
[21]
  GI50: 78.7 µM (inactive)
[22]
  GI50: 20.5 µM (inactive)
[23]
  GI50: > 100 µM (inactive)
[24]
  GI50: > 100 µM (inactive)
[25]
  GI50: 96.6 µM (inactive)
[26]
  GI50: 11.6 µM (inactive)
[27]
  GI50: > 100 µM (inactive)
[28]
  GI50: > 100 µM (inactive)
[29]
  GI50: > 100 µM (inactive)
[30]
  GI50: 5.68 µM (inactive)
[31]
  GI50: 60.1 µM (inactive)
[32]
  GI50: 78.2 µM (inactive)
[33]
  GI50: 93.8 µM (inactive)
[34]
  GI50: > 100 µM (inactive)
[35]
  GI50: 60.4 µM (inactive)
[36]
  GI50: 93.1 µM (inactive)
[37]
  GI50: 14.1 µM (inactive)
[38]
  GI50: 56.8 µM (inactive)
[39]
  GI50: 24.3 µM (inactive)
[40]
  GI50: 24.4 µM (inactive)
[41]
  GI50: 39.9 µM (inactive)
[42]
  GI50: > 100 µM (inactive)
[43]
  GI50: > 100 µM (inactive)
[44]
  GI50: 55.3 µM (inactive)
[45]
  GI50: > 100 µM (inactive)
[46]
  GI50: > 100 µM (inactive)
[47]
  GI50: 31.7 µM (inactive)
[48]
  GI50: 45.3 µM (inactive)
[49]
  GI50: 23.4 µM (inactive)
[50]
  GI50: 44.2 µM (inactive)
[51]
  GI50: 53.3 µM (inactive)
[52]
  GI50: > 100 µM (inactive)
[53]
  GI50: 29.5 µM (inactive)
[54]
  GI50: > 100 µM (inactive)
[55]
  GI50: 74 µM (inactive)
[56]
  GI50: 52.8 µM (inactive)

## COc1cc([C@@H]2C3C(=O)c4ccccc4C3[C@@H](c3cc(OC)c(OC)c(OC)c3)C23Cc2ccccc2C3=O)cc(OC)c1OC (stereo partly drawn)
[1]
  GI50: > 100 µM (inactive)
[2]
  GI50: > 100 µM (inactive)
[3]
  GI50: > 100 µM (inactive)
[4]
  GI50: > 100 µM (inactive)
[5]
  GI50: > 100 µM (inactive)
[6]
  GI50: 2.75 µM (inactive)
[57]
  GI50: > 100 µM (inactive)
[7]
  GI50: > 100 µM (inactive)
[8]
  GI50: > 100 µM (inactive)
[9]
  GI50: > 100 µM (inactive)
[10]
  GI50: > 100 µM (inactive)
[11]
  GI50: > 100 µM (inactive)
[12]
  GI50: > 100 µM
[13]
  GI50: > 100 µM (inactive)
[14]
  GI50: > 100 µM (inactive)
[15]
  GI50: 1.87 µM (inactive)
[16]
  GI50: > 100 µM (inactive)
[17]
  GI50: > 100 µM (inactive)
[18]
  GI50: 24.3 µM (inactive)
[58]
  GI50: > 100 µM (inactive)
[19]
  GI50: > 100 µM (inactive)
[20]
  GI50: > 100 µM (inactive)
[21]
  GI50: > 100 µM (inactive)
[22]
  GI50: 15.4 µM (inactive)
[23]
  GI50: > 100 µM (inactive)
[24]
  GI50: > 100 µM (inactive)
[25]
  GI50: > 100 µM (inactive)
[26]
  GI50: > 100 µM (inactive)
[59]
  GI50: > 100 µM (inactive)
[27]
  GI50: > 100 µM (inactive)
[28]
  GI50: > 100 µM (inactive)
[29]
  GI50: > 100 µM (inactive)
[30]
  GI50: > 100 µM (inactive)
[31]
  GI50: > 100 µM (inactive)
[32]
  GI50: > 100 µM (inactive)
[33]
  GI50: > 100 µM (inactive)
[34]
  GI50: > 100 µM (inactive)
[35]
  GI50: > 100 µM (inactive)
[36]
  GI50: > 100 µM (inactive)
[37]
  GI50: 37.8 µM (inactive)
[38]
  GI50: > 100 µM (inactive)
[39]
  GI50: > 100 µM (inactive)
[40]
  GI50: > 100 µM (inactive)
[41]
  GI50: > 100 µM (inactive)
[42]
  GI50: > 100 µM (inactive)
[44]
  GI50: > 100 µM (inactive)
[45]
  GI50: > 100 µM (inactive)
[46]
  GI50: > 100 µM (inactive)
[47]
  GI50: > 100 µM (inactive)
[48]
  GI50: 21.8 µM (inactive)
[49]
  GI50: > 100 µM (inactive)
[50]
  GI50: > 100 µM (inactive)
[51]
  GI50: > 100 µM (inactive)
[52]
  GI50: > 100 µM (inactive)
[53]
  GI50: > 100 µM (inactive)
[54]
  GI50: > 100 µM (inactive)
[56]
  GI50: > 100 µM (inactive)
